Laboratory results published in patent US20110218103A1, “Fluoroalkyl-substituted 2-amidobenzimidazoles” (BAYER CROPSCIENCE AG, priority 2010, published 2011).

Tested on: Triticum aestivum (TRZAS)
Assay: Drought stress test on crop plants, spray application in greenhouse, visual damage rating
Format: in vivo
Details: mean of three results
Procedure: Seeds of monocotyledonous and dicotyledonous crop plants were placed in sandy loam in wood-fiber pots, covered with soil and cultivated in a greenhouse under good growth conditions. The test plants were treated at the early leaf stage (BBCH10-BBCH13). To ensure uniform water supply before commencement of stress, the potted plants were supplied with the maximum amount of water immediately beforehand by dam irrigation and, after application, transferred in plastic inserts in order to prevent subsequent, excessively rapid drying. The inventive compounds, formulated in the form of wettable powders (WP), wettable granules (WG), suspension concentrates (SC) or emulsion concentrates (EC), were sprayed onto the green parts of the plants as an aqueous suspension at an equivalent water application rate of 600 l/ha with addition of 0.2% wetting agent (agrotin). Substance application was followed immediately by stress treatment of the plants (cold or drought stress). For cold stress treatment, the plants were kept under the following controlled conditions: Drought stress was induced by gradual drying out under the following conditions: “day”: 14 hours with illumination at 26° C. “night”: 10 hours without illumination at 18° C. The duration of the respective stress phases was guided mainly by the state of the untreated, stressed control plants and thus varies from crop to crop. It was ended (by re-irrigating or transfer to a greenhouse with good growth conditions) as soon as irreversible damage is observed on the untreated, stressed control plants. In the case of dicotyledonous crops, for example oilseed rape and soya, the duration of the drought stress phase was between 3 and 5 days, in the case of monocotyledonous crops, for example wheat, barley or corn, between 6 and 10 days. The duration of the cold stress phase varied between 12 and 14 days. The end of the stress phase was followed by an approx. 5-7-day recovery phase, during which the plants were once again kept under good growth conditions in a greenhouse. In order to rule out any influence of the effects observed by any fungicidal action of the test compounds, it was additionally ensured that the tests proceed without fungal infection and without infection pressure. After the recovery phase had ended, the intensities of damage were rated visually compared to untreated, unstressed controls of the same age (in the case of drought stress) or the same growth stage (in the case of cold stress). The intensity of damage was first assessed as a percentage (100%=plants have died, 0%=like control plants). These values were then used to calculate the efficacy of the test compounds (=percentage reduction in the intensity of damage as a result of substance application) by the following formula: [formula] EF: efficacy (%) DVus: damage value of the untreated, stressed control DVts: damage value of the plants treated with test compound The tables below list mean values in each case from three results of the same test. Effects of selected compounds of the formula (I) under drought stress: TRZAS=Triticum aestivum

SMILES: NC(=O)c1cccc2[nH]c(C(F)(F)C(F)(F)F)nc12 [1-2, 2-(pentafluoroethyl)-1H-benzimidazole-4-carboxamide]
- EF (TRZAS), efficacy = percentage reduction in the intensity of damage (25 g/ha): >5%

SMILES: NC(=O)c1cccc2[nH]c(C(F)(F)C(F)(F)C(F)(F)F)nc12 [1-17]
- EF (TRZAS), efficacy = percentage reduction in the intensity of damage (250 g/ha): >5%
